Measurements from patent US20130142868A1 (priority 2010, published 2013).
Like-named read-outs stand apart in the source and are kept apart here.

Assays:
[1] = tested on: A549 human lung cancer cells; assay: Alamar Blue cell viability assay, A549; assay type: cell-based; details: 72 h, 3 days incubation
Experimental: HUVEC, LLC-PK1, and A549 lung cancer cells were purchased from ATCC. LLC-PK1 cells were cultured in DMEM supplemented with 10% FBS and antibiotics (100 U/mL penicillin G and 0.1 mg/mL streptomycin). HUVEC cells were cultured in F12-K media supplemented with 100 ug/ml endothelial cell growth supplement (BD Biosciences, Franklin Lakes, N.J.), 10% FBS, and antibiotics. A549 human lung cancer cells were cultured in F12-K media with 10% FBS and antibiotics. All cells were grown at 37° C. in a 5% CO2/95% air humidified atmosphere.
Cell viability experiments were performed using the Alamar Blue dye reduction assay (Invitrogen, Carlsbad, Calif.). The experimental cell lines were plated at 1.0×10^4 cells/well in 96-well plates in recommended media and allowed to adhere overnight. The next day, cells were incubated with liposomes or free CCNU, with drug concentrations from 2.5 to 100 μM. Cells were also incubated with empty RGD-expressed and non-targeted liposomes. The control cells were only incubated in the recommended media. All experiments were performed in quadruplicate. Incubations were allowed to carry out for 3 days. […] Next, the wells were analyzed with a fluorescence plate reader with absorption and emission of 485/535 nm. All cell viability results are expressed as a percentage of viable cells compared to control cells.

[2] = rat, in vivo
rats = details: rat, in vivo
[3] = in vivo; cited from earlier work

`O=NN(CCCl)C(=O)NC1CCCCC1` [Free Drug, 1-(2-chloroethyl)-3-cyclohexyl-1-nitroso-urea] showed an IC50 ([1]; after aerosolization, read-out: IC50 values, post-aerosolization) of 70.5 ± 2.97 µM and an IC50 ([1]; before aerosolization, read-out: IC50 values, pre-aerosolization) of 68.7 ± 2.48 µM.

For `Cc1c(O)cccc1C(=O)N[C@@H](CSc1ccccc1)[C@H](O)CN1C[C@H]2CCCC[C@H]2C[C@H]1C(=O)NC(C)(C)C` [nelfinavir], the “blood concentration, nose drop administration relative to POD administration” value ([2]; Sprague-Dawley, 30 min) was 3.2 times higher, the “cortex concentration, increase POD compared to nose drops” value ([2]; Sprague-Dawley, 30 min) was 4.05 fold and the “olfactory bulb concentration, increase POD compared to nose drops” value ([2]; Sprague-Dawley, 30 min) was 1.91 fold. The “blood normalized olfactory bulb concentration, POD compared to nose drops” value ([2]; 30 min) was 3.6 fold, the “brain-to-blood ratio (average of all brain tissues), increase POD compared to nose drops” value ([2]; 30 min) was 2.1 fold and the “cortex concentration, increase POD compared to nose drops” value ([2]; 30 min) was 4.0 fold. For the same compound, the “olfactory bulb concentration, increase POD compared to nose drops” value ([2]; 30 min) was 1.4 fold.

For `CN1CC[C@]23c4c5ccc(O)c4O[C@H]2[C@@H](O)C=C[C@H]3[C@H]1C5` [morphine], the “DTP % after POD administration” value (rats) was 38-55% and the “DTP % after nose drops, depending on the dose” value (rats) was 0-10%.

For `OC[C@@H](O)[C@@H](O)[C@H](O)[C@H](O)CO` [mannitol], the half life [3] is given as 1.67 h, the “concentration at olfactory bulbs” value ([2]; Sprague-Dawley, 30 min) is given as “about 2 nmol/g” and the “concentration in the brain's cortex, brain stem and spine” value ([2]; Sprague-Dawley, 30 min) is given as 0.2 to 0.4 nmol/g. The “cortex concentration, increase POD compared to IV” value ([2]; Sprague-Dawley, 30 min) was 8.69 fold, the “cortex concentration, increase POD compared to nose drops” value ([2]; Sprague-Dawley, 30 min) was 11.6 fold and the “olfactory bulb concentration, increase POD compared to IV” value ([2]; Sprague-Dawley, 30 min) was 53.1 fold. For the same compound, the “olfactory bulb concentration, increase POD compared to nose drops” value ([2]; Sprague-Dawley, 30 min) was 25.6 fold, the “olfactory bulb concentration, increase POD compared to IV” value ([2]; Sprague-Dawley, 150 min) was 40.0 fold and the “olfactory bulb concentration, increase POD compared to nose drops” value ([2]; Sprague-Dawley, 150 min) was 22.1 fold. The “concentration in the brain's cortex, brain stem and spine” value ([2]; Sprague-Dawley, iv, 30 min) was “less than 0.02 nmol/g”, the “blood normalized olfactory bulb concentration, POD compared to nose drops” value ([2]; 30 min) was 18.6 fold and the “brain-to-blood ratio (average of all brain tissues), increase POD compared to nose drops” value ([2]; 30 min) was 3.4 fold.
